From patent US20230278983A1, “INDOLE DERIVATIVES AND USES THEREOF FOR TREATING A CANCER” (Universite Claude Bernard Lyon 1, priority 2020, published 2023)

Target: CK2 (Homo sapiens (Human), UniProt P68400)
Assay: Radiometric CK2 kinase assay
Format: biochemical
Conditions: not given

Chain of CK2 (P68400 whole entry): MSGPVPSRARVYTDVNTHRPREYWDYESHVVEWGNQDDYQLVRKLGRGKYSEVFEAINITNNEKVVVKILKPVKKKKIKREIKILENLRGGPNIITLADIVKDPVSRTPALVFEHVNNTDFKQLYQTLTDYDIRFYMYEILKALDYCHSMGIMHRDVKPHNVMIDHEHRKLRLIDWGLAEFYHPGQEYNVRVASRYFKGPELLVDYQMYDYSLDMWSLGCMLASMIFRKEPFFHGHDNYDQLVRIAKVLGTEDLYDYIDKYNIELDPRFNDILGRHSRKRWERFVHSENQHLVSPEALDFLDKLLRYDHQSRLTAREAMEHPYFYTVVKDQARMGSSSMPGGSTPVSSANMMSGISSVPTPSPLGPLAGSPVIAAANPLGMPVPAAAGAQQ

Q: How did the IC50 turn out when `CC(=O)c1[nH]c2ccc(F)cc2c1-c1cn(CC2CCN(CCNS(=O)(=O)c3ccc(-c4ccccc4O)cc3)CC2)nn1` [AB1450, N-(2-(4-((4-(2-acetyl-5-fluoro-1H-indol-3-yl)-1H-1,2,3-triazol-1-yl)methyl)piperidin-1-yl)ethyl)-2′-hydroxy-[1,1′-biphenyl]-4-sulfonamide] was run?
A: The IC50 was 49 nM.

Q: How did the IC50 turn out when `CC(=O)c1[nH]c2ccc(F)cc2c1-c1cn(CC2CCN(CCNS(=O)(=O)c3ccc(-c4c(F)cccc4F)cc3)CC2)nn1` [AB1288, N-(2-(4-((4-(2-acetyl-5-fluoro-1H-indol-3-yl)-1H-1,2,3-triazol-1-yl)methyl)piperidin-1-yl)ethyl)-2′,6′-difluoro-[1,1′-biphenyl]-4-sulfonamide] was run?
A: The IC50 was 78 nM.

Q: Which IC50 does the source give for `CC(=O)c1[nH]c2ccc(F)cc2c1-c1cn(C[C@H]2CCN(CCNS(=O)(=O)c3ccc(CC(C)C)cc3)C2)nn1` [AB1318] here?
A: The IC50 was 300 nM.

Q: For `CC(C)COC(=O)c1[nH]c2ccc(F)cc2c1-c1cn(CC2CCN(CCNS(=O)(=O)c3ccc(C4CCCCC4)cc3)CC2)nn1` [AB914, isobutyl 3-(1-((1-(2-((4-cyclohexylphenyl)sulfonamido)ethyl)piperidin-4-yl)methyl)-1H-1,2,3-triazol-4-yl)-5-fluoro-1H-indole-2-carboxylate], which IC50 is on record?
A: Its IC50 is 71 nM.

Q: With `O=S(=O)(NCCN1CCC(Cn2cc(-c3c[nH]c4ccccc34)nn2)CC1)c1ccc(Cl)cc1` [AB152, N-(2-(4-((4-(1H-Indol-3-yl)-1H-1,2,3-triazol-1-yl)methyl)piperidin-1-yl)ethyl)-4-chlorobenzenesulfonamide] as the molecule, how does the IC50 read?
A: Its IC50 is 35000 nM.

Same assay, conditions: compound at 0.10 μM; ATP 10 μM

Q: How did the inhibition at 0.1 µM turn out when `CC(=O)c1[nH]c2ccc(F)cc2c1-c1cn(CC2CCN(CCNS(=O)(=O)c3ccc(-c4c(C)cccc4C#N)cc3)CC2)nn1` [AB1452, N-(2-(4-((4-(2-acetyl-5-fluoro-1H-indol-3-yl)-1H-1,2,3-triazol-1-yl)methyl)piperidin-1-yl)ethyl)-2′-cyano-6′-methyl-[1,1′-biphenyl]-4-sulfonamide] was run?
A: Its inhibition at 0.1 µM is 36%.

Q: How did the inhibition at 0.1 µM turn out when `CC(C)Cc1ccc(S(=O)(=O)NCCN2CCC(Cn3cc(-c4c(CO)[nH]c5ccc(F)cc45)nn3)CC2)cc1` [AB1405, N-(2-(4-((4-(5-fluoro-2-(hydroxymethyl)-1H-indol-3-yl)-1H-1,2,3-triazol-1-yl)methyl)piperidin-1-yl)ethyl)-4-isobutylbenzenesulfonamide] was run?
A: Its inhibition at 0.1 µM is 11%.

Same assay, conditions: compound at 1 μM; ATP 10 μM

Q: For `CC(C)CCNC(=O)c1[nH]c2ccc(F)cc2c1-c1cn(CC2CCN(CCNS(=O)(=O)c3ccc(C(C)C)cc3)CC2)nn1` [AB671, 5-Fluoro-N-isopentyl-3-(1-((1-(2-((4-isopropylphenyl)sulfonamido)ethyl)piperidin-4-yl)methyl)-1H-1,2,3-triazol-4-yl)-1H-indole-2-carboxamide], which inhibition at 1 µM is on record?
A: Its inhibition at 1 µM is 18%.

Q: How did the inhibition at 1 µM turn out when `CC(C)COC(=O)c1[nH]c2ccc(F)cc2c1-c1cn(CC2CCN(C(=O)c3ccc(-c4cccc5[nH]ccc45)c(C(F)(F)F)c3)CC2)nn1` [AB756, Isobutyl 3-(1-((1-(4-(1H-indol-4-yl)-3-(trifluoromethyl)benzoyl)piperidin-4-yl)methyl)-1H-1,2,3-triazol-4-yl)-5-fluoro-1H-indole-2-carboxylate] was run?
A: The inhibition at 1 µM was 19%.

Q: With `CC(C)COC(=O)c1[nH]c2ccc(F)cc2c1-c1cn(CC2CCN(CCNS(=O)(=O)c3ccc4c(c3)CCO4)CC2)nn1` [AB930, isobutyl 3-(1-((1-(2-((2,3-dihydrobenzofuran)-5-sulfonamido)ethyl)piperidin-4-yl)methyl)-1H-1,2,3-triazol-4-yl)-5-fluoro-1H-indole-2-carboxylate] as the molecule, how does the inhibition at 1 µM read?
A: The inhibition at 1 µM was 45%.

Q: Which inhibition at 1 µM does the source give for `CC(C)CNC(=O)c1[nH]c2ccc(F)cc2c1-c1cn(CC2CCN(CCNS(=O)(=O)c3ccc(C(C)C)cc3)CC2)nn1` [AB652, 5-Fluoro-N-isobutyl-3-(1-((1-(2-((4-isopropylphenyl)sulfonamido)ethyl)piperidin-4-yl)methyl)-1H-1,2,3-triazol-4-yl)-1H-indole-2-carboxamide] here?
A: The inhibition at 1 µM was 4%.
